# Laboratory results as given in patent US20240350643A1, “PROTEIN DEGRADATION AGENT” (SUZHOU KINTOR PHARMACEUTICALS, INC., priority 2021, published 2024).
# Test system: HL60 cells
# Assay: Anti-proliferation ability of compounds on HL60 cells (CTG)
# Assay type: cell-based, human
# Conditions: Homo sapiens, HL-60, 72 h, 3 days, CellTiter-Glo, read-out: HL60 cells Proliferation inhibitory activity
# Method: II. Activity test 2: Anti-proliferation ability of compounds on HL60 cells: 1 Cell plating
# HL60 cells in the logarithmic growth phase were counted and plated evenly in a 96-well transparent bottom white plate at 20000 cells per well and 100 μL per well.
# A certain amount of the compounds was weighed and diluted with DMSO to a 10 mM stock solution. The culture mediums corresponding to the cells were taken, and the drugs were diluted to the concentration required by the test, shaken gently and mixed evenly. 50 μl of the gradient dilution of the diluted compound was added to each well of the plated cells, and 50 μL of 0.1% DMSO was added to the control group. The plate was shaken gently, mixed evenly and incubated in a cell culture incubator for 3 days.
# • 3.1 The CellTiter-GLo™ (CTG) reagent was taken in advance from the −20° C. refrigerator and equilibrated to room temperature in the dark (white bottle+brown bottle, 1:1 mixing evenly into the brown bottle, for later use). • 3.2 The 96-well plate was taken out and inspected under a microscope for growth situation. • 3.3 The bottom of the 96-well plate was tagged with white paper, and then the plate was wrapped with tin foil paper, shaken at 37° C. at 300 r for 10 min and mixed evenly. • 3.4 50 ul of CTG detection reagent was added to each well, Luminescence signal was detected using a microplate reader, and the inhibition rate was calculated. IC50 values of the compounds were calculated by XLfit software to evaluate the proliferation inhibitory activity on HL60 cells.
row,SMILES,IC50 [nM]
1,N#Cc1cc(CNC(=O)Cn2c3ccccc3c3cccnc32)ccc1CC(=O)Nc1ccc2c(c1)CN(C1CCC(=O)NC1=O)C2=O (stereo not shown) [A211],13.3 ± 1
2,O=C(Cn1c2ccccc2c2cccnc21)NCc1ccc(C2(NC(=O)c3ccc4c(c3)CN(C3CCC(=O)NC3=O)C4=O)CC2)cc1 (stereo not shown) [A213],5.4 ± 1.9
3,O=C1CCC(N2Cc3cc(C(=O)NCc4ccc(C5(NC(=O)Cn6c7ccccc7c7cccnc76)CC5)cn4)ccc3C2=O)C(=O)N1 (stereo not shown) [A214],5.2 ± 1.4
4,O=C(Cn1c2ccccc2c2cccnc21)NCc1ccc(C2(NC(=O)c3ccc4c(c3)CN(C3CCC(=O)NC3=O)C4=O)CC2)cn1 (stereo not shown) [A215],186 ± 67
5,O=C(Cn1c2ccccc2c2cccnc21)NCc1ccc(C2(NC(=O)c3ccc4c(c3)CN(C3CCC(=O)NC3=O)C4=O)CC2)cc1F (stereo not shown) [A216],3.5 ± 1.1
6,O=C(Cn1c2ccccc2c2cccnc21)NCc1ccc(CC(=O)Nc2ccc3c(c2F)CN(C2CCC(=O)NC2=O)C3=O)c(C(F)(F)F)c1 (stereo not shown) [A218],3.3 ± 0.8
7,O=C(Cn1c2ccccc2c2cccnc21)NCc1ccc(CC(=O)Nc2cc3c(cc2F)C(=O)N(C2CCC(=O)NC2=O)C3)c(C(F)(F)F)c1 (stereo not shown) [A219],7.8 ± 2
8,O=C1CCC(N2Cc3cc(C(=O)NCc4ccc(CN(CCc5cccc6ccccc56)CCc5cccc6ccccc56)cc4)ccc3C2=O)C(=O)N1 (stereo not shown) [A230],11.8 ± 1.2
9,O=C1CCC(N2Cc3cc(C(=O)NCc4ccc(CN(CCO)CCc5ccc(Cl)c(Cl)c5)cc4)ccc3C2=O)C(=O)N1 (stereo not shown) [A233],< 3.04
10,O=C(Cn1c2ccccc2c2cccc(CO)c21)NCc1ccc(CNC(=O)c2ccc3c(c2)C(=O)N(C2CCC(=O)NC2=O)C3=O)cc1 (stereo not shown) [A236],6.3 ± 1.2

# Now from value to compound:
row,IC50 [nM],SMILES
1,1.5 ± 0.1,O=C1CCC(N2Cc3cc(C(=O)NCc4ccc(C5(NC(=O)Cn6c7ccccc7c7cccnc76)CC5)cc4)ccc3C2=O)C(=O)N1 (stereo not shown) [A212]
2,0.6,Cc1cc(CNC(=O)Cn2c3ccccc3c3cccnc32)ccc1CNC(=O)c1ccc2c(c1)CN(C1CCC(=O)NC1=O)C2=O (stereo not shown) [A217]
3,0.6 ± 0.2,O=C(Cn1c2ccccc2c2cccnc21)NCc1ccc(CNC(=O)c2cc3c(cc2F)C(=O)N(C2CCC(=O)NC2=O)C3)cc1 (stereo not shown) [A222]
4,0.7 ± 0.4,O=C(Cn1c2ccccc2c2cccnc21)NCc1ccc(CNC(=O)c2ccc3c(c2F)CN(C2CCC(=O)NC2=O)C3=O)cc1 (stereo not shown) [A223]
5,1,CC(C)(C)C(=O)OCN1C(=O)CCC(N2Cc3cc(C(=O)NCc4ccc(CNC(=O)Cn5c6ccccc6c6cccnc65)cc4)ccc3C2=O)C1=O (stereo not shown) [A226]
6,< 3.04,N#Cc1cccc2c3ccccc3n(CC(=O)NCc3ccc(CNC(=O)c4ccc5c(c4)CN(C4CCC(=O)NC4=O)C5=O)cc3)c12 (stereo not shown) [A229]
7,< 3.04,O=C1CCC(N2Cc3cc(C(=O)NCc4ccc(CNCCc5cccc6ccccc56)cc4)ccc3C2=O)C(=O)N1 (stereo not shown) [A231]
8,0.54,O=C1CCC(N2Cc3cc(C(=O)NCc4ccc(CN(CCc5cccc6ccccc56)C(=O)CO)cc4)ccc3C2=O)C(=O)N1 (stereo not shown) [A232]
9,0.71 ± 0.04,O=C1CCC(N2Cc3cc(C(=O)NCc4ccc(CN(CCO)CCc5cccc6ccccc56)cc4)ccc3C2=O)C(=O)N1 (stereo not shown) [A234]
